Test results from patent publication US9540356B2 (priority 2012, dated 2017).

What was measured:
HeLa cells [1] = assay type: cell-based, human
HeLa cells [2] = assay: cells; assay type: cell-based; conditions: Homo sapiens
[3] = test system: retrograde transport of Shiga toxin subunit B (StxB); assay type: cell-based

For Cc1ccc(C2N(C)c3ccccc3C(=O)N2c2ccccc2F)s1 (stereo not shown) [Compound 58, 3-(2-Fluorophenyl)-1-methyl-2-(5-methylthiophen-2-yl)-2,3-dihydroquinazolin-4(1H)-one], the “R (Stx), protective index” value (HeLa cells [1]) was 25 and the IC50 (HeLa cells [2]) was 5.5 µM.

For O=C1c2ccccc2NC(c2ccc(Br)s2)N1c1ccccc1 (stereo not shown) [Compound 9, 2-(5-Bromothiophen-2-yl)-3-phenyl-2,3-dihydroquinazolin-4(1H)-one], the “R (Stx), protective index” value (HeLa cells [1]) was 27.9 and the IC50 (HeLa cells [2]) was 13.7 µM.

CN1c2ccccc2C(=O)N(c2ccccc2)C1c1ccc(-c2csc(CN=[N+]=[N-])n2)s1 (stereo not shown) [Compound 63, 2-(5-(2-(Azidomethyl)thiazol-4-yl)thiophen-2-yl)-1-methyl-3-phenyl-2,3-dihydroquinazolin-4(1H)-one] gave an IC50 (HeLa cells [2]) of 3 to 5 µM.

Cc1nc(-c2ccc(C3N(C)c4ccc(F)cc4C(=O)N3c3ccccc3C(=O)c3ccccc3)s2)cs1 (stereo not shown) [Compound 66] showed an IC50 (HeLa cells [2]) of 1 µM.

With CCc1ccc(C2N(C)c3ccccc3C(=O)N2c2ccccc2)s1 (stereo not shown) [Compound 41, 2-(5-Ethylthiophen-2-yl)-1-methyl-3-phenyl-2,3-dihydroquinazolin-4(1H)-one] the “R (Stx), protective index” value (HeLa cells [1]) was 173 and the “retrograde transport, % control” value [3] was 0.0%.

Cc1nc(-c2ccc(C3Nc4ccc(F)cc4C(=O)N3c3ccccc3)s2)cs1 (stereo not shown) [Compound 34, 6-Fluoro-2-(5-(2-methylthiazol-4-yl)thiophen-2-yl)-3-phenyl-2,3-dihydroquinazolin-4(1H)-one] was tested, and the “R (Stx), protective index” value (HeLa cells [1]) was 295.

For CN1c2ccccc2C(=O)N(c2ccccc2)C1c1ccc(Sc2ccccc2)s1 (stereo not shown) [Compound 44, 1-Methyl-3-phenyl-2-(5-(phenylthio)thiophen-2-yl)-2,3-dihydroquinazolin-4(1H)-one], the “R (Stx), protective index” value (HeLa cells [1]) was 71.

For CSc1ccccc1N1C(=O)c2ccccc2N(C)C1c1ccc(C)s1 (stereo not shown) [Compound 57, 1-Methyl-3-(2-(methylthio)phenyl)-2-(5-methylthiophen-2-yl)-2,3-dihydroquinazolin-4(1H)-one], the “R (Stx), protective index” value (HeLa cells [1]) was 25 and the IC50 (HeLa cells [2]) was 3.8 µM.

CSc1ccccc1N1C(=O)c2ccccc2NC1c1ccc(C)s1 (stereo not shown) [Compound 31, 3-(2-(Methylthio)phenyl)-2-(5-methylthiophen-2-yl)-2,3-dihydroquinazolin-4(1H)-one] was tested, and the “R (Stx), protective index” value (HeLa cells [1]) was 99.

CN1c2ccccc2C(=O)N(c2ccccc2)C1c1ccc(CN=[N+]=[N-])s1 (stereo not shown) [Compound 62, 2-(5-(Azidomethyl)thiophen-2-yl)-1-methyl-3-phenyl-2,3-dihydroquinazolin-4(1H)-one] gave an IC50 (HeLa cells [2]) of 12 µM.

C=CCOC(=O)c1ccccc1N1C(=O)c2ccccc2N(C)C1c1ccc(C)s1 (stereo not shown) [Compound 67, Allyl 2-(1-methyl-2-(5-methylthiophen-2-yl)-4-oxo-1,4-dihydroquinazolin-3(2H)-yl)benzoate] was tested, and the IC50 (HeLa cells [2]) was 13 µM.

For CN1c2ccccc2C(=O)N(c2ccccc2)C1c1ccc(-c2cccs2)s1 (stereo not shown) [Compound 39, 2-([2,2′-Bithiophen]-5-yl)-1-methyl-3-phenyl-2,3-dihydroquinazolin-4(1H)-one], the “R (Stx), protective index” value (HeLa cells [1]) was 36 and the “retrograde transport, % control” value [3] was 6.2%.

With Cc1ccc(C2N(C)c3ccccc3C(=O)N2c2ccccc2-c2ccccc2)s1 (stereo not shown) [Compound 59, 3-([1,1′-Biphenyl]-2-yl)-1-methyl-2-(5-methylthiophen-2-yl)-2,3-dihydroquinazolin-4(1H)-one] the “R (Stx), protective index” value (HeLa cells [1]) was 27 and the IC50 (HeLa cells [2]) was 3.7 µM.

COCCOc1ccccc1N1C(=O)c2ccccc2N(C)C1c1ccc(C)s1 (stereo not shown) [Compound 68, 3-(2-(2-Methoxyethoxy)phenyl)-1-methyl-2-(5-methylthiophen-2-yl)-2,3-dihydroquinazolin-4(1H)-one] showed an IC50 (HeLa cells [2]) of 4.2 µM.

In the case of Cc1ccc(C2Nc3ccc(F)cc3C(=O)N2c2ccccc2)s1 (stereo not shown) [Compound 25, 6-Fluoro-2-(5-methylthiophen-2-yl)-3-phenyl-2,3-dihydroquinazolin-4(1H)-one], the “R (Stx), protective index” value (HeLa cells [1]) is reported as 133.

Cc1nc(-c2ccc(C3N(C)c4ccccc4C(=O)N3c3ccccc3C(=O)c3ccccc3)s2)cs1 (stereo not shown) [Compound 65, 3-(2-Benzoylphenyl)-1-methyl-2-(5-(2-methylthiazol-4-yl)thiophen-2-yl)-2,3-dihydroquinazolin-4(1H)-one] gave an IC50 (HeLa cells [2]) of 1 to 3 µM.

With Cc1ccc(C2N(C)c3ccccc3C(=O)N2c2ccccc2I)s1 (stereo not shown) [Compound 55, 3-(2-Iodophenyl)-1-methyl-2-(5-methylthiophen-2-yl)-2,3-dihydroquinazolin-4(1H)-one] the “R (Stx), protective index” value (HeLa cells [1]) was 25 and the IC50 (HeLa cells [2]) was 5.4 µM.

For O=C1c2ccccc2NC(c2ccc(-c3ccccc3)s2)N1c1ccccc1 (stereo not shown) [Compound 13, 3-Phenyl-2-(5-phenylthiophen-2-yl)-2,3-dihydroquinazolin-4(1H)-one], the “R (Stx), protective index” value (HeLa cells [1]) was 153 and the “retrograde transport, % control” value [3] was 13.1%.

COc1ccccc1N1C(=O)c2ccccc2N(C)C1c1ccc(C)s1 (stereo not shown) [Compound 56, 3-(2-Methoxyphenyl)-1-methyl-2-(5-methylthiophen-2-yl)-2,3-dihydroquinazolin-4(1H)-one] was tested, and the “R (Stx), protective index” value (HeLa cells [1]) was 26 and the IC50 (HeLa cells [2]) was 5.4 µM.

In the case of O=C1c2ccccc2NC(c2ccc(-c3ccccn3)s2)N1c1ccccc1 (stereo not shown) [Compound 19, 3-Phenyl-2-(5-(pyridin-2-yl)thiophen-2-yl)-2,3-dihydroquinazolin-4(1H)-one], the “R (Stx), protective index” value (HeLa cells [1]) is reported as 46 and the “retrograde transport, % control” value [3] is reported as 10.7%.

In the case of CSc1ccc(C2Nc3ccccc3C(=O)N2c2ccccc2)s1 (stereo not shown) [Compound 17, 2-(5-(Methylthio)thiophen-2-yl)-3-phenyl-2,3-dihydroquinazolin-4(1H)-one], the “R (Stx), protective index” value (HeLa cells [1]) is reported as 43 and the “retrograde transport, % control” value [3] is reported as 22.8%.

In the case of CN1c2ccccc2C(=O)N(c2ccccc2)C1c1ccc(-c2ccccc2)s1 (stereo not shown) [Compound 36, 1-Methyl-3-phenyl-2-(5-phenylthiophen-2-yl)-2,3-dihydroquinazolin-4(1H)-one], the “R (Stx), protective index” value (HeLa cells [1]) is reported as 29 and the “retrograde transport, % control” value [3] is reported as 7.1%.

For CCc1ccc(C2Nc3ccccc3C(=O)N2c2ccccc2)s1 (stereo not shown) [Compound 7, 2-(5-Ethylthiophen-2-yl)-3-phenyl-2,3-dihydroquinazolin-4(1H)-one], the “R (Stx), protective index” value (HeLa cells [1]) was 120 and the “retrograde transport, % control” value [3] was 13.5%.

In the case of Cc1ccc(C2Nc3ccccc3C(=O)N2c2ccccc2Cl)s1 (stereo not shown) [Compound 32, 3-(2-Chlorophenyl)-2-(5-methylthiophen-2-yl)-2,3-dihydroquinazolin-4(1H)-one], the “R (Stx), protective index” value (HeLa cells [1]) is reported as 68.

In the case of Cc1nc(-c2ccc(C3Nc4ccccc4C(=O)N3c3ccccc3)s2)cs1 (stereo not shown) [Compound 21, 2-(5-(2-Methylthiazol-4-yl)thiophen-2-yl)-3-phenyl-2,3-dihydroquinazolin-4(1H)-one], the “R (Stx), protective index” value (HeLa cells [1]) is reported as 109 and the “retrograde transport, % control” value [3] is reported as 0.0%.

Cc1ccc(C2N(C)c3ccccc3C(=O)N2c2ccccc2Cl)s1 (stereo not shown) [Compound 54, 3-(2-Chlorophenyl)-1-methyl-2-(5-methylthiophen-2-yl)-2,3-dihydroquinazolin-4(1H)-one] was tested, and the “R (Stx), protective index” value (HeLa cells [1]) was 27 and the IC50 (HeLa cells [2]) was 8.2 µM.

With Cc1ccc(C2N(C)c3ccccc3C(=O)N2c2ccccc2)s1 (stereo not shown) [Compound 35, 1-Methyl-2-(5-methylthiophen-2-yl)-3-phenyl-2,3-dihydroquinazolin-4(1H)-one] the “R (Stx), protective index” value (HeLa cells [1]) was 80.

With CN1c2ccccc2C(=O)N(c2ccccc2)C1c1ccc(-c2ccccn2)s1 (stereo not shown) [Compound 37, 1-Methyl-3-phenyl-2-(5-(pyridin-2-yl)thiophen-2-yl)-2,3-dihydroquinazolin-4(1H)-one] the “R (Stx), protective index” value (HeLa cells [1]) was 111 and the “retrograde transport, % control” value [3] was 10.3%.

In the case of Cc1nc(-c2ccc(C3N(C)c4ccc(F)cc4C(=O)N3c3ccccc3)s2)cs1 (stereo not shown) [Compound 61, 6-Fluoro-1-methyl-2-(5-(2-methylthiazol-4-yl)thiophen-2-yl)-3-phenyl-2,3-dihydroquinazolin-4(1H)-one], the “R (Stx), protective index” value (HeLa cells [1]) is reported as 40.

CSc1ccc(C2N(C)c3ccccc3C(=O)N2c2ccccc2)s1 (stereo not shown) [Compound 38, 1-Methyl-2-(5-(methylthio)thiophen-2-yl)-3-phenyl-2,3-dihydroquinazolin-4(1H)-one] was tested, and the “R (Stx), protective index” value (HeLa cells [1]) was 60 and the “retrograde transport, % control” value [3] was 18.2%.

In the case of Cc1ccc(C2N(C)c3ccccc3C(=O)N2c2ccccc2C(=O)O)s1 (stereo not shown) [Compound 69, 2-(1-Methyl-2-(5-methylthiophen-2-yl)-4-oxo-1,4-dihydroquinazolin-3(2H)-yl)benzoic acid], the IC50 (HeLa cells [2]) is reported as 11.2 µM.

In the case of O=C1c2ccccc2NC(c2ccc(-c3ccco3)s2)N1c1ccccc1 (stereo not shown) [Compound 20, 2-(5-(Furan-2-yl)thiophen-2-yl)-3-phenyl-2,3-dihydroquinazolin-4(1H)-one], the “R (Stx), protective index” value (HeLa cells [1]) is reported as 41 and the “retrograde transport, % control” value [3] is reported as 6.5%.

In the case of O=C1c2ccccc2NC(c2ccc(-c3cccs3)s2)N1c1ccccc1 (stereo not shown) [Compound 18, 2-([2,2′-Bithiophen]-5-yl)-3-phenyl-2,3-dihydroquinazolin-4(1H)-one], the “R (Stx), protective index” value (HeLa cells [1]) is reported as 50 and the “retrograde transport, % control” value [3] is reported as 17.1%.

With CN1c2ccc(F)cc2C(=O)N(c2ccccc2)C1c1ccc(-c2csc(CN=[N+]=[N-])n2)s1 (stereo not shown) [Compound 64, 2-(5-(2-(Azidomethyl)thiazol-4-yl)thiophen-2-yl)-6-fluoro-1-methyl-3-phenyl-2,3-dihydroquinazolin-4(1H)-one] the IC50 (HeLa cells [2]) was less than 3 µM.

In the case of Cc1nc(-c2ccc(C3N(C)c4ccccc4C(=O)N3c3ccccc3)s2)cs1 (stereo not shown) [Compound 42, 1-Methyl-2-(5-(2-methylthiazol-4-yl)thiophen-2-yl)-3-phenyl-2,3-dihydroquinazolin-4(1H)-one], the “R (Stx), protective index” value (HeLa cells [1]) is reported as 85 and the “retrograde transport, % control” value [3] is reported as 0.0%.

With CN1c2ccccc2C(=O)N(c2ccccc2)C1c1ccc(Br)s1 (stereo not shown) [Compound 43, 2-(5-Bromothiophen-2-yl)-1-methyl-3-phenyl-2,3-dihydroquinazolin-4(1H)-one] the “R (Stx), protective index” value (HeLa cells [1]) was 40.

With CN1c2ccccc2C(=O)N(c2ccccc2)C1c1ccc(-c2ccoc2)s1 (stereo not shown) [Compound 47, 2-(5-(Furan-3-yl)thiophen-2-yl)-1-methyl-3-phenyl-2,3-dihydroquinazolin-4(1H)-one] the “R (Stx), protective index” value (HeLa cells [1]) was 49.

With Cc1ccc(C2N(C)c3ccccc3C(=O)N2c2ccccc2S(=O)(=O)c2ccccc2)s1 (stereo not shown) [Compound 60, 1-Methyl-2-(5-methylthiophen-2-yl)-3-(2-(phenylsulfonyl)phenyl)-2,3-dihydroquinazolin-4(1H)-one] the “R (Stx), protective index” value (HeLa cells [1]) was 320.
